Reference: the kinase profiling compilation of Christmann-Franck et al. (2016)

Experiments:
Assay in all cases: KINOMEscan competition binding
Settings in all cases: compound 10.0 µM
ROCK1 (human) = ROCK1 (human) (UniProt Q13464)
LATS1 (human) = LATS1 (human) (UniProt O95835)
STK39 (human) = STK39 (human) (UniProt Q9UEW8)
AKT2 (human) = AKT2 (human) (UniProt P31751)
SGK3 (human) = SGK3 (human) (UniProt Q96BR1)
RET (human) = RET (human) (UniProt P07949)
ACVR1 (human) = ACVR1 (human) (UniProt Q04771)
NEK3 (human) = NEK3 (human) (UniProt P51956)
FLT4 (human) = FLT4 (human) (UniProt P35916)
CDK5 (human) = CDK5 (human) (UniProt Q00535)
LIMK2 (human) = LIMK2 (human) (UniProt P53671)
CAMK2B (human) = CAMK2B (human) (UniProt Q13554)
SIK2 (human) = SIK2 (human) (UniProt Q9H0K1)
CDK11B (human) = CDK11B (human) (UniProt P21127)
TEC (human) = TEC (human) (UniProt P42680)
MAPK14 (human) = MAPK14 (human) (UniProt Q16539)
[1] = tested on: EGFR (human), P00533 [A750P; 747-749 del]
MAPKAPK5 (human) = MAPKAPK5 (human) (UniProt Q8IW41)
MATK (human) = MATK (human) (UniProt P42679)
PRKCE (human) = PRKCE (human) (UniProt Q02156)
MAP3K9 (human) = MAP3K9 (human) (UniProt P80192)
SIK3 (human) = SIK3 (human) (UniProt Q9Y2K2)
INSR (human) = INSR (human) (UniProt P06213)
EIF2AK1 (human) = EIF2AK1 (human) (UniProt Q9BQI3)
MAP3K7 (human) = MAP3K7 (human) (UniProt O43318)
NEK5 (human) = NEK5 (human) (UniProt Q6P3R8)
[2] = tested on: KIT (human), P10721 [A829P]
EPHB2 (human) = EPHB2 (human) (UniProt P29323)
RPS6KA3 KD1 (human) = RPS6KA3 KD1 (human) (UniProt P51812)
PIP5K1A (human) = PIP5K1A (human) (UniProt Q99755)
HIPK2 (human) = HIPK2 (human) (UniProt Q9H2X6)
CDK4 CCND3 (human) = CDK4 CCND3 (human) (UniProt P11802+P30281)
CHEK1 (human) = CHEK1 (human) (UniProt O14757)
[3] = tested on: PIK3CA (human), P42336 [M1043I]
ADCK3 (human) = ADCK3 (human) (UniProt Q8NI60)
PRKD3 (human) = PRKD3 (human) (UniProt O94806)
CAMK1G (human) = CAMK1G (human) (UniProt Q96NX5)
CDK17 (human) = CDK17 (human) (UniProt Q00537)
PAK2 (human) = PAK2 (human) (UniProt Q13177)
NEK11 (human) = NEK11 (human) (UniProt Q8NG66)

Sequence of FLT4 (human) (P35916 whole entry, looked up): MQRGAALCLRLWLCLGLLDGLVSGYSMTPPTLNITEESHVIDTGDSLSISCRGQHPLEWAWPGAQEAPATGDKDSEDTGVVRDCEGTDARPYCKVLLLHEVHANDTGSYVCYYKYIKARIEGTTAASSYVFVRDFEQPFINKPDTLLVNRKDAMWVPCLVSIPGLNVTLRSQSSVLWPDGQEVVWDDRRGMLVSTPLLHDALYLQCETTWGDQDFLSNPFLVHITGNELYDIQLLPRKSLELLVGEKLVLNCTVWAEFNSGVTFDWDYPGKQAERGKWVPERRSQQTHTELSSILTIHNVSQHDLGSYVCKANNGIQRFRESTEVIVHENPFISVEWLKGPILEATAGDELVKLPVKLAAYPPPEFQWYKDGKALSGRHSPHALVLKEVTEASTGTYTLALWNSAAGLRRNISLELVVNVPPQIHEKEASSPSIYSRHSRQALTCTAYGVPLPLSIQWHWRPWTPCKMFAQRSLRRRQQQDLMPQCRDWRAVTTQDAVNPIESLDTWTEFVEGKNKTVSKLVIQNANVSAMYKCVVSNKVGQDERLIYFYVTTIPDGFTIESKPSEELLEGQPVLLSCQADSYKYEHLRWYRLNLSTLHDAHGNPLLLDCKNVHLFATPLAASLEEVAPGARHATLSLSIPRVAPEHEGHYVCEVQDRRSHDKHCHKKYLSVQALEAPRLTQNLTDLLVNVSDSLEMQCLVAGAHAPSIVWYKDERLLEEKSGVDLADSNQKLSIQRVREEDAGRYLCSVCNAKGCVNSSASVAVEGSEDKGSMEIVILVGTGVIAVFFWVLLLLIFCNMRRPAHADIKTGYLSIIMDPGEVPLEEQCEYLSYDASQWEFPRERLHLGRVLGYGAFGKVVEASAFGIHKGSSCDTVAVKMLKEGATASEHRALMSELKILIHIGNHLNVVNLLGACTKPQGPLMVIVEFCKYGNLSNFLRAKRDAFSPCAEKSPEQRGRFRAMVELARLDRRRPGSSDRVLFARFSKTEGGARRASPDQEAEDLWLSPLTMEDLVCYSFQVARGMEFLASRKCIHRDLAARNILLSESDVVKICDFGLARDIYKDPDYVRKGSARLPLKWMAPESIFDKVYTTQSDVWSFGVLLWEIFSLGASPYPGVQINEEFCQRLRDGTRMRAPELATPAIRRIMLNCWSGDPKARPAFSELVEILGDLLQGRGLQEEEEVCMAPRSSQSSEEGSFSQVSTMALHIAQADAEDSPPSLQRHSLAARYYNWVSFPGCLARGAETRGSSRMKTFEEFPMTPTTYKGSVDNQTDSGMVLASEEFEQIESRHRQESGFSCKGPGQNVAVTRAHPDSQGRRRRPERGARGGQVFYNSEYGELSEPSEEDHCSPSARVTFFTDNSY
Sequence of INSR (human) (P06213 whole entry, looked up): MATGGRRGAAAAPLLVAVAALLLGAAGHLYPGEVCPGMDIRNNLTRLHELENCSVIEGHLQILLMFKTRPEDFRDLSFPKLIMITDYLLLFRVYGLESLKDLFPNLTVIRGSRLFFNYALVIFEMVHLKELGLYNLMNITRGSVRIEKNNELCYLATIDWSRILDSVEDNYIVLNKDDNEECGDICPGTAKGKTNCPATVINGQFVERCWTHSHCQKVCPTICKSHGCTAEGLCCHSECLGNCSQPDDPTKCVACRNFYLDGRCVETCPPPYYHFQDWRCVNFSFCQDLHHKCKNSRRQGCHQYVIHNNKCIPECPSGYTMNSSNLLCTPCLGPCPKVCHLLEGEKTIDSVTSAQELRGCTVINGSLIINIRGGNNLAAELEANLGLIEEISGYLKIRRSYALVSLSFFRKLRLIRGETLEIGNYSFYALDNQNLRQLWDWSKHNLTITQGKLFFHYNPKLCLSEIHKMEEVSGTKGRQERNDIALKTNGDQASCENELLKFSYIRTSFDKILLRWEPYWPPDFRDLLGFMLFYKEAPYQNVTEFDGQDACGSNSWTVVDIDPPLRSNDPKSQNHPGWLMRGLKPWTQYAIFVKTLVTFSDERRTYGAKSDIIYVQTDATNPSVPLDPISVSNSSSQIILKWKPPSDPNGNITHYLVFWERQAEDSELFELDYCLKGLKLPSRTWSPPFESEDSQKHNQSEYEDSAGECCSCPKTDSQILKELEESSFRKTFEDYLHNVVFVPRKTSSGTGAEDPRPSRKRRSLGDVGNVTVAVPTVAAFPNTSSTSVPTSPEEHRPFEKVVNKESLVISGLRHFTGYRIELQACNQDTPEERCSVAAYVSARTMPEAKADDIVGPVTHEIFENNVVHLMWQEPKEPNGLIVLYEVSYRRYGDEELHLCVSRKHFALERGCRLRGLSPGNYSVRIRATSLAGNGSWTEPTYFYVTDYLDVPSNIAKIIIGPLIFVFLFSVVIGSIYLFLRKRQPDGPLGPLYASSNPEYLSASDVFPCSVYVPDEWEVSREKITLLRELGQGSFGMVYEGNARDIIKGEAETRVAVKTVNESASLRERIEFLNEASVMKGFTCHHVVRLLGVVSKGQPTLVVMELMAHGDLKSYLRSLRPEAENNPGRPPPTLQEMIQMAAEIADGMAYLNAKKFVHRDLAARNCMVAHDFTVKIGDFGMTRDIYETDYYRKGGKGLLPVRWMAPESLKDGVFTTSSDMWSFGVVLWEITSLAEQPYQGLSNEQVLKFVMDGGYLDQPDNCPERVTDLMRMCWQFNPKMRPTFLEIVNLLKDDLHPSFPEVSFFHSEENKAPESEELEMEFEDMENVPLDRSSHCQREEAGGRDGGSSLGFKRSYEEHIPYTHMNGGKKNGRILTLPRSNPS
Sequence of SIK2 (human) (Q9H0K1 whole entry, looked up): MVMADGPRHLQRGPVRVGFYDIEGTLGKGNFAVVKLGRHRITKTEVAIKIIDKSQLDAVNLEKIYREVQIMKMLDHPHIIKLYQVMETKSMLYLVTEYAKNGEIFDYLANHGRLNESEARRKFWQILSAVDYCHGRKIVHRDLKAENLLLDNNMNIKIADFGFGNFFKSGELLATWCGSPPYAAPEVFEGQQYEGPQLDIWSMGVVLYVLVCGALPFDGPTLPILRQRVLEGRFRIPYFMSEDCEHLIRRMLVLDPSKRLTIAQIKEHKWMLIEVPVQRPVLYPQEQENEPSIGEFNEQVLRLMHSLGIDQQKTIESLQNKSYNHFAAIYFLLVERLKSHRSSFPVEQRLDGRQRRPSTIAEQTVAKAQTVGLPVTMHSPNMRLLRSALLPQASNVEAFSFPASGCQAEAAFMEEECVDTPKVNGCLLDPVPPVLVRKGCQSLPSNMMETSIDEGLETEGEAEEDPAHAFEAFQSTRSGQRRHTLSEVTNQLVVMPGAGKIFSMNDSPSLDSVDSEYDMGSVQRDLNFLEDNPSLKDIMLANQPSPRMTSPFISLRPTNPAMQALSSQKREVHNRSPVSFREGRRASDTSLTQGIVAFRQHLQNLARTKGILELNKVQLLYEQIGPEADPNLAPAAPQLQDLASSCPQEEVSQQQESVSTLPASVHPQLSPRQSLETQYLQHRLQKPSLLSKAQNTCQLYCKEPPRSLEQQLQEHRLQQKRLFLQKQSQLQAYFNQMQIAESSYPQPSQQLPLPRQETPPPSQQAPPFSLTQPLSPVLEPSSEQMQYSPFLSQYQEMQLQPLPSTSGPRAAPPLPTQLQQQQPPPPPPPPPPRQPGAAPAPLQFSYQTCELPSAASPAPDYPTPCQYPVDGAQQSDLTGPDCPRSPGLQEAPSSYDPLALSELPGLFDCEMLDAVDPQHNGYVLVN
Sequence of MAP3K7 (human) (O43318 whole entry, looked up): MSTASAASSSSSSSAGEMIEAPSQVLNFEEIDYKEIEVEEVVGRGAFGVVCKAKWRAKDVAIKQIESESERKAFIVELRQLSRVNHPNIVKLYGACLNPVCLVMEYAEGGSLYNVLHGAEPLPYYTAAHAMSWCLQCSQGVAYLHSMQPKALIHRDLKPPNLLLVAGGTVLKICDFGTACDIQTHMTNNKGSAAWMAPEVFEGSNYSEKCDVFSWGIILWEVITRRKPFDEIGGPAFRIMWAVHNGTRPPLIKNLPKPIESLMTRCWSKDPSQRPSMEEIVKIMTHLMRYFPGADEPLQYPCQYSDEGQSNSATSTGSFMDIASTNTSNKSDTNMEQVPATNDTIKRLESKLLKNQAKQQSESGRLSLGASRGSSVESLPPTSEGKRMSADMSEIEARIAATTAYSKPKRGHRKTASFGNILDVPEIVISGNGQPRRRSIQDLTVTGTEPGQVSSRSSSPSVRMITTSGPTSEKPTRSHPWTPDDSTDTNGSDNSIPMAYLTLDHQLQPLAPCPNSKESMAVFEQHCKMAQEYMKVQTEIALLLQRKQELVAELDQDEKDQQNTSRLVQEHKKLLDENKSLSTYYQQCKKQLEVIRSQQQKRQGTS
Sequence of MATK (human) (P42679 whole entry, looked up): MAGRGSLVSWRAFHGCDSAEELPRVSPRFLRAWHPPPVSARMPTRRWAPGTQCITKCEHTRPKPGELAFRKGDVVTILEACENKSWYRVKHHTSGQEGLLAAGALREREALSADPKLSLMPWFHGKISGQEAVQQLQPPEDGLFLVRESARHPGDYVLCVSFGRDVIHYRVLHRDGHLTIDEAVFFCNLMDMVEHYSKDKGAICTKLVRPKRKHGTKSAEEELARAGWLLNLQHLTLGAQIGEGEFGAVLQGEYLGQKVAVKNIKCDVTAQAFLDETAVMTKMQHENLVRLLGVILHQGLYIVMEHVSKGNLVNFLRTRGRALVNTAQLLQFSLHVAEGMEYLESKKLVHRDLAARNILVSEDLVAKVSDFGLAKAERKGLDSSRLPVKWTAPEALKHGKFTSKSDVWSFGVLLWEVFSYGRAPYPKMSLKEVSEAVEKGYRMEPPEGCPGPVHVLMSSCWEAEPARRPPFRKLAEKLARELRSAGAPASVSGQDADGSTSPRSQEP
Sequence of CDK5 (human) (Q00535 whole entry, looked up): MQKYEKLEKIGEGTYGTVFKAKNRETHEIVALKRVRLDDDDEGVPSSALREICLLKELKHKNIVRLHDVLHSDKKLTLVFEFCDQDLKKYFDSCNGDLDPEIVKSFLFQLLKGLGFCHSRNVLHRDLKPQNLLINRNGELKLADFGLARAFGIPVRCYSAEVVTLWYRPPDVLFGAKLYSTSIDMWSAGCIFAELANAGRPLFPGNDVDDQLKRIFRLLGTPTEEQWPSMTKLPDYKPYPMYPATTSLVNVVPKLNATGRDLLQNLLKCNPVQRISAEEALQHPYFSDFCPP

Compound	kinase still bound, per cent of control (ROCK1 (human)) [%]	kinase still bound, per cent of control (LATS1 (human)) [%]	kinase still bound, per cent of control (STK39 (human)) [%]	kinase still bound, per cent of control (AKT2 (human)) [%]	kinase still bound, per cent of control (RET (human)) [%]	kinase still bound, per cent of control (ACVR1 (human)) [%]	kinase still bound, per cent of control (FLT4 (human)) [%]	kinase still bound, per cent of control (LIMK2 (human)) [%]	kinase still bound, per cent of control (CAMK2B (human)) [%]	kinase still bound, per cent of control (SIK2 (human)) [%]	kinase still bound, per cent of control (CDK11B (human)) [%]	kinase still bound, per cent of control (TEC (human)) [%]	kinase still bound, per cent of control (MAPK14 (human)) [%]	kinase still bound, per cent of control [1] [%]	kinase still bound, per cent of control (MAPKAPK5 (human)) [%]	kinase still bound, per cent of control (MATK (human)) [%]	kinase still bound, per cent of control (PRKCE (human)) [%]	kinase still bound, per cent of control (MAP3K9 (human)) [%]	kinase still bound, per cent of control (SIK3 (human)) [%]	kinase still bound, per cent of control (INSR (human)) [%]	also measured
CCCS(=O)(=O)Nc1ccc(F)c(C(=O)c2c[nH]c3ncc(Cl)cc23)c1F	77	86	100	68	76	100	61	24	63	84	99	100	60	77	100	90	100	94	100	83	kinase still bound, per cent of control (SGK3 (human)): 49%; kinase still bound, per cent of control (NEK3 (human)): 69%; kinase still bound, per cent of control (CDK5 (human)): 57%; kinase still bound, per cent of control (EIF2AK1 (human)): 32%; kinase still bound, per cent of control (MAP3K7 (human)): 51%; kinase still bound, per cent of control (NEK5 (human)): 100%; kinase still bound, per cent of control [2]: 67%; kinase still bound, per cent of control (EPHB2 (human)): 100%; kinase still bound, per cent of control (RPS6KA3 KD1 (human)): 56%; kinase still bound, per cent of control (PIP5K1A (human)): 100%; kinase still bound, per cent of control (HIPK2 (human)): 20%; kinase still bound, per cent of control (CDK4 CCND3 (human)): 70%; kinase still bound, per cent of control (CHEK1 (human)): 82%; kinase still bound, per cent of control [3]: 76%; kinase still bound, per cent of control (ADCK3 (human)): 92%; kinase still bound, per cent of control (PRKD3 (human)): 100%; kinase still bound, per cent of control (CAMK1G (human)): 76%; kinase still bound, per cent of control (CDK17 (human)): 56%; kinase still bound, per cent of control (PAK2 (human)): 37%
CCOc1cc(N2CCC(O)CC2)ccc1Nc1ncc2c(n1)N(C)c1ccccc1C(=O)N2C	100	100	100	100	100	100	100	100	100	100	100	100	100	100	100	100	100	100	100	100	kinase still bound, per cent of control (CDK5 (human)): 100%; kinase still bound, per cent of control (MAP3K7 (human)): 100%; kinase still bound, per cent of control (NEK5 (human)): 100%; kinase still bound, per cent of control (EPHB2 (human)): 100%; kinase still bound, per cent of control (RPS6KA3 KD1 (human)): 100%; kinase still bound, per cent of control (PIP5K1A (human)): 100%; kinase still bound, per cent of control (HIPK2 (human)): 100%; kinase still bound, per cent of control (CHEK1 (human)): 100%; kinase still bound, per cent of control [3]: 100%; kinase still bound, per cent of control (ADCK3 (human)): 100%; kinase still bound, per cent of control (PRKD3 (human)): 100%; kinase still bound, per cent of control (CAMK1G (human)): 100%; kinase still bound, per cent of control (CDK17 (human)): 100%; kinase still bound, per cent of control (PAK2 (human)): 100%
COc1cc2c(Nc3ccc(NC(=O)c4ccccc4)cc3)ncnc2cc1OCCCN1CCOCC1	98	100	100	100	0.15	100	83	78	78	63	16	76	100	22	100	100	100	70	100	77	kinase still bound, per cent of control (SGK3 (human)): 100%; kinase still bound, per cent of control (NEK3 (human)): 100%; kinase still bound, per cent of control (NEK11 (human)): 100%; kinase still bound, per cent of control (EIF2AK1 (human)): 20%; kinase still bound, per cent of control (MAP3K7 (human)): 49%; kinase still bound, per cent of control (NEK5 (human)): 100%; kinase still bound, per cent of control [2]: 59%; kinase still bound, per cent of control (EPHB2 (human)): 100%; kinase still bound, per cent of control (PIP5K1A (human)): 100%; kinase still bound, per cent of control (HIPK2 (human)): 50%; kinase still bound, per cent of control (CDK4 CCND3 (human)): 100%; kinase still bound, per cent of control (CHEK1 (human)): 100%; kinase still bound, per cent of control [3]: 99%; kinase still bound, per cent of control (ADCK3 (human)): 90%; kinase still bound, per cent of control (PRKD3 (human)): 100%; kinase still bound, per cent of control (CAMK1G (human)): 66%; kinase still bound, per cent of control (CDK17 (human)): 94%; kinase still bound, per cent of control (PAK2 (human)): 89%
